Where two headings read alike, the source gives them in different places.
Columns and labels:
[1] = test system: p(Ser^293)E1α levels in PC-3 cells; test: Phospho(Ser293) E1α MSD ELISA in PC-3 cells; assay type: cell-based; conditions: for IC50: Homo sapiens, PD marker (ELISA); for Degree of suppression of p(Ser^293)E1α levels (plateau), reduction compared to DMSO control: MSD ELISA
Experimental: Phospho(Ser^293) E1α MSD ELISA assay: All reagents were purchased from Meso Scale Discovery (Maryland, USA) unless otherwise stated. Following compound treatment, cells were treated with lysis buffer (TBS pH 7.4, 1% Tween-20, 1 mM EGTA, 1 mM EDTA, 1 mM NaF, protease and phosphatase inhibitor cocktails (Roche)) on ice and the lysates added to standard bind 96 well MSD plates which were pre-loaded with custom phospho(Ser^293)E1α ‘capture’ antibody (2 μg/ml in TBST containing 3% (w/v) blocker A) (Genescript) and blocked with 3% (w/v) blocker A, followed by a 1 h incubation at RT. The wells were then washed 3X with TBST (0.05% tween 20) followed by the addition of 2 μg/ml E1α ‘detection’ antibody (2 μg/ml) (Abcam) and a further 1 h incubation at RT. The wells were again washed 3X with TBST followed by the addition of 1 μg/ml Goat anti-mouse Sulfotag antibody, and a further TBST wash prior to the addition of 2X read buffer T. The chemiluminescent signal was then measured on a MSD sector imager 2400.

[2] = test system: PDC activity in K562 cells; test: Cellular PDC activity assay, K562; assay type: cell-based; conditions: 20 μM VER-246608 or […] Nov3r
Experimental: Cellular PDC activity was determined using a commercial assay kit (Abcam) as per the manufacturer's instructions. Briefly, PC-3 and K562 cell suspensions at a density of 1×10^6 and 1.5×10^6, respectively, were transferred to 96 well plates (250 μL per well). Cells were pre-treated with compound or DMSO for 1 h in a CO2incubator at 37°C followed by cell lysis in 250 μL of a 9:1 dilution of assay kit detergent (containing 20 mM NaF and 40 μM of the PDK inhibitor VER-246550) for 10 min on ice. The cellular debris was then pelleted at 1000g for 10 min. A 200 μL aliquot of each lysate was then transferred to the immunocapture microplate. PDC reaction rates were determined from the slope of the reaction curves and expressed as a percentage of the vehicle (DMSO) control values. […]
transformed and additional cancer cell lines. A, The indicated cell lines were seeded into […]
relevant media containing either 2 g/L D-glucose or D-galactose for 96 h. Cell mass was determined using the sulforhodamine B assay. Results are expressed as the percentage change vs DMSO control values for cells incubated in D-glucose containing media. […]
analysis of pyruvate dehydrogenase (PDH) activity in cell lysates using a commercially available ELISA-based assay kit (Abcam). Results are expressed as a percentage of the PDH reaction rate in DMSO treated cells. […]

[3] = biological target: T1, HSP-90 (Homo sapiens, UniProt P08238); test: HSP-90 fluorescence polarization assay; assay type: binding; conditions: read-out: HSP-90 FP, IC50
T1 construct: made in house
T1 sequence (P08238 whole entry, species assumed): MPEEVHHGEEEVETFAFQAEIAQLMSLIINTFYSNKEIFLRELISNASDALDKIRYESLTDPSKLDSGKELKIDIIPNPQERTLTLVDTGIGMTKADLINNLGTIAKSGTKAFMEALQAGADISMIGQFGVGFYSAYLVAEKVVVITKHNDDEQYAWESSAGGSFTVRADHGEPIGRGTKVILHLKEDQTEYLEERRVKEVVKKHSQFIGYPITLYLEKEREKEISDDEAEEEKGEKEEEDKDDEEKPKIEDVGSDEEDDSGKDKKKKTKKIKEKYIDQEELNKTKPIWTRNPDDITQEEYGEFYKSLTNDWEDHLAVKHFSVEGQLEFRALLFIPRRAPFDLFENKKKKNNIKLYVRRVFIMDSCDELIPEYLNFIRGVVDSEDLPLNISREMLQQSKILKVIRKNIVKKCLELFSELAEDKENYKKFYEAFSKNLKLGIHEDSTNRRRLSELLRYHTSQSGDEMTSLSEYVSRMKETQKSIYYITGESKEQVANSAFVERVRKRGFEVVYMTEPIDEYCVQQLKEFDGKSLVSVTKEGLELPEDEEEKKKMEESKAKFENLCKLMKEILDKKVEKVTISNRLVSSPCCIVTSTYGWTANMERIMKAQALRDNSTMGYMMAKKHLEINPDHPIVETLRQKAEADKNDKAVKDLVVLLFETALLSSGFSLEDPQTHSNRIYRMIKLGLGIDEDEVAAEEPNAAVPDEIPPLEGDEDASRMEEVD
Experimental: The HSP-90ß FP assay was conducted as previously described.

[4] = test system: HSP-70 induction in PC-3 cells (biomarker for HSP-90 inhibition); test: HSP-70 in-cell ELISA assay; assay type: cell-based; conditions: for EC50: PD marker (ELISA), PC-3 cells, 24 h
Experimental: DELFIA assay reagents (assay buffer, enhancement solution and europium-labeled secondary antibody) were obtained from Perkin Elmer (MD, USA). PC-3 cells were seeded (1×10^4 per well) into 96 well black-walled cell culture plates. The following day, the cells were treated with a 10 point tripling dilution series of test compound for 24 h followed by fixation with TBS containing 4% formaldehyde for 15 min at RT. The cells were then permeabilized the addition of permeabilization buffer (TBS containing 1% triton-X-100) and a further 15 min incubation at RT. The cells were then washed 3X with TBS, followed by the addition of quenching solution (TBS containing 1% H2O2), a 20 min incubation at RT and a further 3X wash with TBS. The permeabilized cells were then incubated for 30 minutes with blocking buffer (TBS containing 5% (w/v) dried milk) followed by a 90 min incubation with HSP-70 primary antibody (ENZO; 1:1000 dilution in TBS containing 200 μg/ml BSA). The wells were then washed 3X with wash buffer (TBS containing 0.1% Tween-20), followed by the addition of europium-labeled anti-mouse secondary antibody (1:1000 in DELFIA assay buffer) and a 1 h incubation at RT. The wells were then washed 3X with wash buffer followed by the addition of enhancement solution.

[5] = test system: PDC activity in PC-3 cells; test: Cellular PDC activity assay, PC-3; assay type: cell-based; conditions: magnitude greater for VER-246608
Experimental: Cellular PDC activity was determined using a commercial assay kit (Abcam) as per the manufacturer's instructions. Briefly, PC-3 and K562 cell suspensions at a density of 1×10^6 and 1.5×10^6, respectively, were transferred to 96 well plates (250 μL per well). Cells were pre-treated with compound or DMSO for 1 h in a CO2incubator at 37°C followed by cell lysis in 250 μL of a 9:1 dilution of assay kit detergent (containing 20 mM NaF and 40 μM of the PDK inhibitor VER-246550) for 10 min on ice. The cellular debris was then pelleted at 1000g for 10 min. A 200 μL aliquot of each lysate was then transferred to the immunocapture microplate. PDC reaction rates were determined from the slope of the reaction curves and expressed as a percentage of the vehicle (DMSO) control values.

[6] = test system: PC-3 cells; test: Oxygen consumption (oxytherm oxygen electrode); assay type: cell-based
Experimental: Oxygen consumption was measured using an ‘oxytherm’ oxygen electrode system (Hansatech). PC-3 cells were trypsinized and re-suspended to a density of 1.7×10^6cells/mL in RPMI-1640 media containing 10% FCS. Compounds or DMSO were then added to 1.5 mL aliquots of this suspension to yield the required final concentration followed by a 1 h incubation period in a CO2incubator at 37°C. The compound/vehicle treated cells were then transferred to the oxygen electrode chamber (pre-equilibrated to 37°C). Oxygen consumption was measured over a 30 minute period and the rate of oxygen consumption determined by plotting oxygen concentration against time and obtaining the slope of the line using the linear fit function within excel.

Row | Compound | IC50 ([1]; PC-3, read-out: p(Ser^293)E1α (10% FCS), IC50, 10% FCS) | IC50 ([1]; PC-3 cells, 0% FCS, read-out: p(Ser^293)E1α (0% FCS), IC50) | Reduction in p(Ser^293)E1α levels ([1]; PC-3, 10 and 20 μM, 24 h, D-glucose/L-glutamine-depleted media) | Degree of suppression of p(Ser^293)E1α levels (plateau), reduction compared to DMSO control ([1]; PC-3 cells) | Increase in PDC activity [2] | IC50 [3] | EC50 ([4]; Homo sapiens) | Induction of HSP-70 in PC-3 cells ([4]; biomarker for HSP-90 inhibition) | Increase in PDC activity [5] | Increase in the rate of oxygen consumption ([6]; 20 μM, 1 h pre-treatment) | EC50 [4] | Effect on oxygen consumption rate ([6]; concentrations ≥ 1μM (3 μM in Fig. 3B))
1 | Cc1cnc(Cl)nc1-c1ccc(N(Cc2ccc(CNC(=O)C(F)F)cc2)C(=O)c2ccc(O)cc2O)cc1 [VER-246608] | 1.45 µM | 0.266 µM | > 70% | complete suppression | an increase in PDC activity | > 100 µM | > 80 µM | lack of a detectable induction | an increase in PDC activity | 66% | – | –
2 | C[C@@H]1CN(C(=O)[C@](C)(O)C(F)(F)F)[C@@H](C)CN1C(=O)c1ccc(C#N)cc1 [Nov3r, reference compound] | – | – | – | approximately 60% | an increase in PDC activity | > 200 µM | – | – | an increase in PDC activity | – | > 80 µM | no discernible effect
